Source: patent publication US20050209256A1, “Novel beta-turn mimetics as calcitonin gene related peptide receptor antagonists” (priority 2004, published 2005)
pIC50: −log10 of the molar value.

Target: T1, human CGRP receptor (Homo sapiens, UniProt O60894+Q16602)
T1 construct: SK-N-MC cells that endogenously express the human CGRP receptor; endogenous in cells; host or cells: SK-N-MC cells (membrane homogenates)
Assay: Radioligand binding assay, [125I]-CGRP competition on SK-N-MC cell homogenates
Settings: Binding data, [125I]-CGRP 40 pM, room temperature
Procedure: Tissue culture. SK-N-MC cells were grown at 37° C. in 5% CO2 as a monolayer in medium consisting of MEM with Earle's salts and L-glutamine (Gibco) supplemented with 10% fetal bovine serum (Gibco).
Radioligand binding assays. Cells were rinsed twice with phosphate-buffered saline (155 mM NaCl, 3.3 mM Na2HPO4, 1.1 mM KH2PO4, pH 7.4), and incubated for 5-10 min. at 4° C. in hypotonic lysis buffer consisting of 10 mM Tris (pH 7.4) and 5 mM EDTA. Cells were transferred from plates to polypropylene tubes (16×100 mm), homogenized and centrifuged at 32,000×g for 30 min. Pellets were resuspended in buffer consisting of 50 mM Tris (pH 7.4) and 1 mM EDTA, homogenized, and centrifuged again at 32,000×g for 30 min. Pellets were resuspended in 100 mM Tris-Cl pH 7.5, 10 mM MgCl2, 0.1% mammalian protease inhibitor cocktail (Sigma) and stored at −80° C. until needed. On the day of an experiment, homogenates were thawed and homogenized again. Binding of [^125I]-CGRP (NEN) was carried out in buffer containing 50 mM Tris-Cl pH 7.5, 5 mM MgCl2, 0.5% BSA. Homogenates (3.5 μg protein/well) were incubated with competitor compounds (solubilized in 100% DMSO at 100× their final assay concentrations) for one hour at room temperature. Then [^125I]-CGRP was added (40 pM final concentration) and the reaction incubated for one additional hour at room temperature. Assays were stopped by addition of cold wash buffer (20 mM Tris-Cl pH 7.5, 0.1% BSA) immediately followed by filtration over glass fiber filters (Whatman GF/B) previously soaked in 0.5% PEI. Non-specific binding was defined with 100 nM CGRP.

With `CC(=O)c1ccc(NC(=O)N2CCC(=O)N3[C@@H](C4CCCCC4)C(=O)N(CCc4cccs4)C[C@H]23)cc1` [Compound 138, (6S,9aS)-6-Cyclohexyl-4,7-dioxo-8-(2-thiophen-2-yl-ethyl)-hexahydro-pyrazino[1,2-a]pyrimidine-1-carboxylic acid (4-acetyl-phenyl)-amide] as the compound, how does the pIC50 read?
The pIC50 was 7.06.

`CC(=O)c1ccc(OC(=O)N2CCC(=O)N3[C@@H](C4CCCCC4)C(=O)N(CCc4ccccc4)C[C@H]23)cc1` [Compound 149, (6S,9aS)-6-Cyclohexyl-4,7-dioxo-8-phenethyl-hexahydro-pyrazino[1,2-a]pyrimidine-1-carboxylic acid 4-acetyl-phenyl ester] was tested. Which pIC50 did it give?
Its pIC50 is 5.07.

With `CC(=O)c1ccc(NC(=O)N2CCC(=O)N3[C@@H]2CN(CCc2cccc(F)c2)C(=O)[C@@H]3Cc2cncn2C)cc1` [Compound 54, (6S,9aS)-8-[2-(3-Fluoro-phenyl)-ethyl]-6-(3-methyl-3H-imidazol-4-ylmethyl)-4,7-dioxo-hexahydro-pyrazino[1,2-a]pyrimidine-1-carboxylic acid (4-acetyl-phenyl)-amide] as the compound, how does the pIC50 read?
Its pIC50 is 5.90.

`CC(=O)c1ccc(NC(=O)N2CCC(=O)N3[C@@H]2CN(CCc2cccc(F)c2)C(=O)[C@@H]3Cc2ccc(F)c(F)c2)cc1` [Compound 62, (6S,9aS)-6-(3,4-Difluoro-benzyl)-8-[2-(3-fluoro-phenyl)-ethyl]-4,7-dioxo-hexahydro-pyrazino[1,2-a]pyrimidine-1-carboxylic acid (4-acetyl-phenyl)-amide] was tested. Which pIC50 did it give?
The pIC50 was 6.20.

How did the pIC50 turn out when `CC(=O)c1ccc(NC(=O)N2CCC(=O)N3[C@@H]2CN(CCc2cccc(F)c2)C(=O)[C@@H]3Cc2cc(F)cc(F)c2)cc1` [Compound 55, (6S,9aS)-6-(3,5-Difluoro-benzyl)-8-[2-(3-fluoro-phenyl)-ethyl]-4,7-dioxo-hexahydro-pyrazino[1,2-a]pyrimidine-1-carboxylic acid (4-acetyl-phenyl)-amide] was run?
Its pIC50 is 6.40.

`CC(=O)c1ccc(NC(=O)N2CCC(=O)N3[C@@H](c4ccccc4)C(=O)N(CCc4ccccc4)C[C@H]23)cc1` [Compound 64, (6S,9aS)-4,7-Dioxo-8-phenethyl-6-phenyl-hexahydro-pyrazino[1,2-a]pyrimidine-1-carboxylic acid (4-acetyl-phenyl)-amide] was tested. Which pIC50 did it give?
Its pIC50 is 6.33.

How did the pIC50 turn out when `CC(=O)c1ccc(NC(=O)N2c3cc4ccccc4cc3C(=O)N3[C@@H](C4CCOCC4)C(=O)N(CCc4cccc(F)c4)C[C@H]23)cc1` [Compound 53, (4S,12S)-2-[2-(3-Fluoro-phenyl)-ethyl]-3,5-dioxo-4-(tetrahydro-pyran-4-yl)-1,3,4,12a-tetrahydro-2H,5H-2,4a,12-triaza-naphthacene-12-carboxylic acid (4-acetyl-phenyl)-amide] was run?
Its pIC50 is 5.53.

With `CC(=O)c1ccc(NC(=O)N2CCC(=O)N3[C@@H]2CN(CCc2cccc(F)c2)C(=O)[C@@H]3Cc2ccccc2)cc1` [Compound 22, (6S,9aS)-6-Benzyl-8-[2-(3-fluoro-phenyl)-ethyl]-4,7-dioxo-hexahydro-pyrazino[1,2-a]pyrimidine-1-carboxylic acid (4-acetyl-phenyl)-amide] as the compound, how does the pIC50 read?
The pIC50 was 5.66.

With `CC(=O)c1ccc(NC(=O)N2CCC(=O)N3[C@@H](C4CCOCC4)C(=O)N(CCc4cccc(F)c4)C[C@H]23)cc1` [Compound 52, (6S,9aS)-8-[2-(3-Fluoro-phenyl)-ethyl]-4,7-dioxo-6-(tetrahydro-pyran-4-yl)-hexahydro-pyrazino[1,2-a]pyrimidine-1-carboxylic acid (4-acetyl-phenyl)-amide] as the compound, how does the pIC50 read?
The pIC50 was 6.45.

How did the pIC50 turn out when `CC[C@H](C)[C@H]1C(=O)N(CCc2cccc(F)c2)C[C@@H]2N(C(=O)Nc3ccc(C(C)=O)cc3)CCC(=O)N12` [Compound 21, (6S,9aS)-6-(1S-Methyl-propyl)-8-[2-(3-fluoro-phenyl)-ethyl]-4,7-dioxo-hexahydro-pyrazino[1,2-a]pyrimidine-1-carboxylic acid (4-acetyl-phenyl)-amide] was run?
The pIC50 was 6.63.

How did the pIC50 turn out when `CSCC1C(=O)N(CCc2cccc(F)c2)C[C@@H]2N(C(=O)Nc3ccc(C(C)=O)cc3)CCC(=O)N12` (stereo in doubt) [Compound 37, (6S,9aS)-8-[2-(3-Fluoro-phenyl)-ethyl]-6-methylsulfanylmethyl-4,7-dioxo-hexahydro-pyrazino[1,2-a]pyrimidine-1-carboxylic acid (4-acetyl-phenyl)-amide] was run?
Its pIC50 is 6.15.

`CCCC[C@H]1C(=O)N(CCc2cccc(F)c2)C[C@@H]2N(C(=O)Nc3ccc(C(C)=O)cc3)CCC(=O)N21` [Compound 26, (6S,9aS)-6-Butyl-8-[2-(3-fluoro-phenyl)-ethyl]-4,7-dioxo-hexahydro-pyrazino[1,2-a]pyrimidine-1-carboxylic acid (4-acetyl-phenyl)-amide] was tested. Which pIC50 did it give?
The pIC50 was 6.93.

`O=C1COc2cc(OC(=O)N3CCC(=O)N4[C@@H](C5CCCCC5)C(=O)N(CCc5ccccc5)C[C@H]34)ccc21` [Compound 150, (6S,9aS)-6-Cyclohexyl-4,7-dioxo-8-phenethyl-hexahydro-pyrazino[1,2-a]pyrimidine-1-carboxylic acid 3-oxo-2,3-dihydro-benzofuran-6-yl ester] was tested. Which pIC50 did it give?
The pIC50 was 5.76.

How did the pIC50 turn out when `CS(=O)(=O)c1ccc(NC(=O)N2CCC(=O)N3[C@@H](C4CCCCC4)C(=O)N(CCc4ccccc4)C[C@H]23)cc1` [Compound 17, (6S,9aS)-6-Cyclohexyl-4,7-dioxo-8-phenethyl-hexahydro-pyrazino[1,2a]pyrimidine-1-carboxylic acid (4-methanesulfonyl-phenyl)-amide] was run?
The pIC50 was 6.38.

How did the pIC50 turn out when `CC(=O)c1ccc(NC(=O)N2CCC(=O)N3[C@@H](C4CCCCC4)C(=O)N(CCc4ccccc4)C[C@H]23)cc1` [Compound 1, (6S,9aS)-6-Cyclohexyl-4,7-dioxo-8-phenethyl-hexahydro-pyrazino[1,2-a]pyrimidine-1-carboxylic acid (4-acetyl-phenyl)-amide] was run?
Its pIC50 is 7.10.

With `CSCC[C@H]1C(=O)N(CCc2cccc(F)c2)C[C@@H]2N(C(=O)Nc3ccc(C(C)=O)cc3)CCC(=O)N21` [Compound 24, (6S,9aS)-8-[2-(3-Fluoro-phenyl)-ethyl]-6-(2-methylsulfanyl-ethyl)-4,7-dioxo-hexahydro-pyrazino[1,2-a]pyrimidine-1-carboxylic acid (4-acetyl-phenyl)-amide] as the compound, how does the pIC50 read?
The pIC50 was 6.67.

With `CC(=O)c1ccc(NC(=O)N2CCC(=O)N3[C@@H]2CN(CCc2cccc(F)c2)C(=O)[C@@H]3CC[S+](C)[O-])cc1` (mixture of isomers) [Compound 42, (6S,9aS)-8-[2-(3-Fluoro-phenyl)-ethyl]-6-(2-methanesulfinyl-ethyl)-4,7-dioxo-hexahydro-pyrazino [1,2-a]pyrimidine-1-carboxylic acid (4-acetyl-phenyl)-amide] as the compound, how does the pIC50 read?
Its pIC50 is 6.11.

With `C[S+]([O-])c1ccc(NC(=O)N2CCC(=O)N3[C@@H](C4CCCCC4)C(=O)N(CCc4ccccc4)C[C@H]23)cc1` (stereo partly drawn) [Compound 18, (6S,9aS)-6-Cyclohexyl-4,7-dioxo-8-phenethyl-hexahydro-pyrazino[1,2a]pyrimidine-1-carboxylic acid (4-methanesulfinyl-phenyl)-amide] as the compound, how does the pIC50 read?
Its pIC50 is 6.53.

`CC(=O)c1ccc(NC(=O)N2CCC(=O)N3[C@@H]2CN(CCc2cccc(F)c2)C(=O)[C@@H]3CCC(N)=O)cc1` [Compound 40, (6S,9aS)-6-(2-Carbamoyl-ethyl)-8-[2-(3-fluoro-phenyl)-ethyl]-4,7-dioxo-hexahydro-pyrazino[1,2-a]pyrimidine-1-carboxylic acid (4-acetyl-phenyl)-amide] was tested. Which pIC50 did it give?
The pIC50 was 5.63.
